{"source": "patent EP0894089B9", "about": "“NOVEL HETEROCYCLIC COMPOUNDS HAVING ANTIDIABETIC, HYPOLIPIDAEMIC, ANTIHYPERTENSIVE PROPERTIES, PROCESS FOR THEIR PREPARATION AND PHARMACEUTICAL COMPOSITIONS CONTAINING THEM” (Dr. Reddy's Laboratories Ltd., priority 1997, dated 1997)", "tested_on": "C57BL/KsJ-db/db mice", "assay": "blood sugar and triglycerides lowering activity in db/db mice (in vivo)", "settings": "male C57BL/KsJ-db/db mice; for Triglyceride Lowering (%) / Reduction in Blood Glucose Level (%): 30 mg / kg oral gavage daily for 6 days, one hour after administration; for Triglyceride Lowering (%): plasma triglyceride on 6th day; for Reduction in Blood Glucose Level (%): random plasma glucose on 6th day", "source_text": "Mutation in colonies of laboratory animals and different sensitivities to dietary regimens have made the development of animal models with non-insulin dependent diabetes associated with obesity and insulin resistance possible. Genetic models such as db/db and ob/ob (See Diabetes, (1982) 31(1) : 1- 6) in mice and fa/fa and zucker rats have been developed by the various laboratories for understanding the pathophysiology of disease and testing the efficacy of new antidiabetic compounds (Diabetes, (1983) 32: 830-838; Annu. Rep. Sankyo Res. Lab. (1994). 46 : 1-57). The homozygous animals, C57 BL/KsJ-db/db mice developed by Jackson Laboratory, US, are obese, hyperglycemic, hyperinsulinemic and insulin resistant (J. Clin. Invest., (1990) 85 : 962-967), whereas heterozygous are lean and normoglycemic. In db/db model, a mouse progressively develops insulinopenia with age, a feature commonly observed in late stages of human type II diabetes when blood sugar levels are insufficiently controlled. The state of pancreas and its course vary according to the models. Since this model resembles that of type II diabetes mellitus, the compounds of the present invention were tested for blood sugar and triglycerides lowering activities.\nMale C57BL/KsJ-db/db mice of 8 to 14 weeks age, having body weight range of 35 to 60 grams, procured from the Jackson Laboraotory, USA, were used in the experiment. The mice were provided with standard feed (National Institute of Nutrition, Hyderabad, India) and acidified water, ad libitum. The animals having more than 300 mg / dl blood sugar were used for testing. The number of animals in each group was 4.\nThe random blood sugar and triglyceride levels were measured by collecting blood (100 µl) through orbital sinus, using heparinised capillary in tubes containing EDTA which was centrifuged to obtain plasma. The plasma glucose and triglyceride levels were measured spectrometrically, by glucose oxidase and glycerol-3-PO4 oxidase/peroxidase enzyme (Dr. Reddy's Lab. Diagnostic Division Kits, Hyderabad, India) methods respectively. On 6th day the blood samples were collected one hour after administration of test compounds / vehicle for assessing the biological activity.\nTest compounds were suspended on 0.25 % carboxymethyl cellulose and administered to test group at a dose of 30 mg / kg through oral gavage daily for 6 days. The control group received vehicle (dose 10 ml / kg).\nThe blood sugar and triglycerides lowering activities of the test compound was calculated according to the formula: Blood sugar / triglycerides lowering activity (%) = 1 -(DT/DC)/(TC/ZC)X 100 [formula] • ZC = Zero day control group value • DC = Zero day treated group value • TC = Control group value on test day • DT = Treated group value on the test day", "note": "Where a name gives a salt, the structure may show the parent alone."}
{"smiles": "Cc1c(C)c2c(c(C)c1OCc1ccccc1)C(CN1CCC[C@H]1COc1ccc(C=C3SC(=O)NC3=O)cc1)C(C)(C)O2", "note": "(stereo partly drawn) [Example 13, 5-[4-[N-[3(RS)-5-Benzyloxy-2,3-dihydro-2,2,4,6,7-pentamethylbenzofuran-3-ylmethyl]-(2S)-pyrrolidine-2-methoxy]phenylmethylene]thiazolidine-2,4-dione maleate]", "values": [{"measurement": "Triglyceride Lowering (%)", "result": 42, "unit": "%"}, {"measurement": "Reduction in Blood Glucose Level (%)", "result": 45, "unit": "%"}]}
{"smiles": "Cc1c(C)c2c(c(C)c1OCc1ccccc1)CCC(C)(CN1CCC[C@H]1COc1ccc(CC3SC(=O)NC3=O)cc1)O2", "note": "(stereo partly drawn) [Example 7, 5-[4-[N-(2RS)-6-Benzyloxy-2,5,7,8,-tetramethylchroman-2-ylmethyl]-(2S)-pyrrolidine-2-methoxy]phenyl methyl]thiazolidine-2,4-dione, sodium salt]", "values": [{"measurement": "Triglyceride Lowering (%)", "result": 70, "unit": "%"}, {"measurement": "Reduction in Blood Glucose Level (%)", "result": 36, "unit": "%"}]}
{"smiles": "Cc1c(C)c2c(c(C)c1O)CCC(C)(COc1ccc(CC3SC(=O)NC3=O)cc1)O2", "note": "(stereo not shown) [Troglitazone, reference compound]", "values": [{"measurement": "reduction in random blood sugar level", "setting": "100 mg / kg, daily dose, on 6th day", "result": 28, "unit": "%"}]}
{"smiles": "Cc1oc2c(C)c(C)c(OCc3ccccc3)c(C)c2c1CN1CCC[C@H]1COc1ccc(C=C2SC(=O)NC2=O)cc1", "note": "[Example 20, 5-[4-[N-(5-Benzyloxy-2,4,6,7-tetramethylbenzofuran-3-ylmethyl)-(2S)-pyrrolidine-2-methoxy]phenylmethylene]thiazolidine-2,4-dione]", "values": [{"measurement": "Triglyceride Lowering (%)", "result": 43, "unit": "%"}, {"measurement": "Reduction in Blood Glucose Level (%)", "result": 16, "unit": "%"}]}
